According to patent US20240226026A1, “BRANCHED TAIL LIPID COMPOUNDS AND COMPOSITIONS FOR INTRACELLULAR DELIVERY OF THERAPEUTIC AGENTS” (ModernaTX, Inc., priority 2021, published 2024):

These compounds were tested on CD-1 mice (assay: Expression of hEPO induced by LNPs (mRNA encoding hEPO) administered to mice). Settings: Table 4b, serum, 6 h after intravenous injection, ELLA Simple Plex Assay.
Format: in vivo
Method: In some embodiments, hEPO concentrations were determined using an […] (ELLA) Simple Plex Assay (ProteinSimple) with a Human Erythroprotein cartridge. Standards for this assay are calibrated according to the 2. IRP WHO preparation. Nanoparticle compositions including mRNA are useful in the evaluation of the efficacy and usefulness of various formulations for the delivery of therapeutic and/or prophylactics. Higher levels of protein expression induced by administration of a composition including an mRNA will be indicative of higher mRNA translation and/or nanoparticle composition mRNA delivery efficiencies. As the non-RNA components are not thought to affect translational machineries themselves, a higher level of protein expression is likely indicative of a higher efficiency of delivery of the therapeutic and/or prophylactic by a given nanoparticle composition relative to other nanoparticle compositions or the absence thereof.
To assess potency of expression of lipids of the disclosure, the protein expression (hEPO) following administration of a nanoparticle comprising a lipid of the disclosure (e.g., a loaded LNP) to mice was measured.
Lipid nanoparticles (LNPs) including DSPC as a phospholipid, cholesterol as a structural lipid, PL-II (e.g., PEG-1) as a PEG lipid, a lipid according to Formula (I-1), (I), (I-A), (I-A1), (I-A2), (I-A3), or (I-A4), and an mRNA encoding hEPO were intravenously administered to CD-1 mice. The concentration of hEPO in serum was tested at 6 h after injection.

| SMILES | Avg. hEPO Concentration (mIU/mL) |
| --- | --- |
| CCCCCCCCC(CCCCCCCC)OC(=O)CCCCCCCN(CCCCCCCC(=O)OCCC(CCCC)CCCC)CCCNC(C)=O [Compound 29] | 7.06E+05 |
| CCCCCCCCC(CCCCCCCC)OC(=O)CCCCCCCN(CCCCCCCC(=O)OCCC(CCCC)CCCC)CCCNC(=O)CC [Compound 30] | 4.73E+06 |
| CCCCCCCCC(CCCCCCCC)OC(=O)CCCCCCCN(CCCCCCCC(=O)OCCC(CCCC)CCCC)CCCNC(=O)C(C)C [Compound 31] | 2.31E+06 |
| CCCCCCCCC(CCCCCCCC)OC(=O)CCCCCCCN(CCCCCCCC(=O)OCCC(CCCC)CCCC)CCCNC(=O)C(C)(C)C [Compound 32] | 1.54E+06 |
| CCCCCCCCC(CCCCCCCC)OC(=O)CCCCCCCN(CCCCCCCC(=O)OCCC(CCCC)CCCC)CCCNC(=O)c1ccccc1 [Compound 33] | 1.78E+05 |
| CCCCCCCCC(CCCCCCCC)OC(=O)CCCCCCCN(CCCCCCCC(=O)OCCC(CCCC)CCCC)CCCNC(=O)C(C)O (stereo not drawn) [Compound 35] | 1.54E+05 |
| CCCCCCCCC(CCCCCCCC)OC(=O)CCCCCCCN(CCCCCCCC(=O)OCCC(CCCC)CCCC)CCCNC(=O)C1(C)CCC1 [Compound 36] | 1.41E+06 |
| CCCCCCCCC(CCCCCCCC)OC(=O)CCCCCCCN(CCCCCCCC(=O)OCCC(CCCC)CCCC)CCCNC(=O)C1(CC)CC1 [Compound 37] | 1.39E+06 |
| CCCCCCCCC(CCCCCCCC)OC(=O)CCCCCCCN(CCCCCCCC(=O)OCCC(CCCC)CCCC)CCCNC(=O)COC [Compound 38] | 6.13E+05 |
| CCCCCCCCC(CCCCCCCC)OC(=O)CCCCCCCN(CCCCCCCC(=O)OCCC(CCCC)CCCC)CCCNC(=O)C1CC1 [Compound 39] | 2.93E+06 |
| CCCCCCCCC(CCCCCCCC)OC(=O)CCCCCCCN(CCCCCCCC(=O)OCCC(CCCC)CCCC)CCCNC(=O)C1CCOCC1 [Compound 40] | 2.16E+06 |
| CCCCCCCCC(CCCCCCCC)OC(=O)CCCCCCCN(CCCCCCCC(=O)OCCC(CCCC)CCCC)CCCNC(=O)C1CCCCC1 [Compound 41] | 1.31E+06 |
| CCCCCCCCC(CCCCCCCC)OC(=O)CCCCCCCN(CCCCCCCC(=O)OCCC(CCCC)CCCC)CCCNC(=O)C12CCC(CC1)CC2 [Compound 42] | 1.02E+06 |
| CCCCCCCCC(CCCCCCCC)OC(=O)CCCCCCCN(CCCCCCCC(=O)OCCC(CCCC)CCCC)CCCNC(=O)C1CCCO1 (stereo not drawn) [Compound 43] | 2.23E+06 |
| CCCCCCCCC(CCCCCCCC)OC(=O)CCCCCCCN(CCCCCCCC(=O)OCCC(CCCC)CCCC)CCCNC(=O)C1CCOC1 (stereo not drawn) [Compound 44] | 1.02E+06 |
| CCCCCCCCC(CCCCCCCC)OC(=O)CCCCCCCN(CCCCCCCC(=O)OCCC(CCCC)CCCC)CCCNC(=O)CNC(C)=O [Compound 46] | 3.88E+03 |
| CC#CC(=O)NCCCN(CCCCCCCC(=O)OCCC(CCCC)CCCC)CCCCCCCC(=O)OC(CCCCCCCC)CCCCCCCC [Compound 47] | 1.17E+06 |
| CCCCCCCCC(CCCCCCCC)OC(=O)CCCCCCCN(CCCCCCCC(=O)OCCC(CCCC)CCCC)CCCNC(=O)C1CCN(C(C)=O)C1 (stereo not drawn) [Compound 48] | 1.47E+02 |
| CCCCCCCCC(CCCCCCCC)OC(=O)CCCCCCCN(CCCCCCCC(=O)OCCC(CCCC)CCCC)CCCNC(=O)C#CC1CC1 [Compound 50] | 2.60E+05 |
| CCCCCCCCC(CCCCCCCC)OC(=O)CCCCCCCN(CCCCCCCC(=O)OCCC(CCCC)CCCC)CCCNC(=O)C1(C)CCOC1 (stereo not drawn) [Compound 55] | 2.61E+06 |
| CCCCCCCCC(CCCCCCCC)OC(=O)CCCCCCCN(CCCCCCCC(=O)OCCC(CCCC)CCCC)CCCNC(=O)C1(C)CCCO1 (stereo not drawn) [Compound 56] | 1.17E+04 |
| CCCCCCCCC(CCCCCCCC)OC(=O)CCCCCCCN(CCCCCCCC(=O)OCCC(CCCC)CCCC)CCCNC(=O)C1(C)CCCCC1 [Compound 58] | 4.17E+05 |
| CCCCCCCCC(CCCCCCCC)OC(=O)CCCCCCCN(CCCCCCCC(=O)OCCC(CCCC)CCCC)CCCNC=O [Compound 59] | 3.27E+05 |
| CCCCCCCCC(CCCCCCCC)OC(=O)CCCCCCCN(CCCCCCCC(=O)OCCC(CCCC)CCCC)CCCNC(=O)C1CN(C(C)=O)C1 [Compound 60] | 2.10E+02 |
